# Test results from patent US11427531B2, “Modulators of potassium ion and TRPV1 channels and uses thereof” (Ramot at Tel-Aviv University Ltd., priority 2017, dated 2022).
# Like-named read-outs stand apart in the source and are kept apart here.
# Tests used:
# [1] = tested on: DRG neuron spike discharge triggered by activation of TRPV1 channels by capsaicin; assay: Capsaicin-evoked DRG neuron spike discharge; format: cell-based
# Method: (§1) For current-clamp recordings in DRG neurons, the patch pipettes were filled with (in mM): 135 KCl, 1 K2ATP, 1 MgATP, 2 EGTA, 1.1 CaCl2, 5 glucose (free [Ca^2+]i=87 nM), 10 HEPES, adjusted with KOH at pH 7.4 (315 mOsm). The external solution contained (in mM): 150 NaCl, 2.5 KCl, 2 CaCl2, 2 MgCl2, 15 glucose, 10 HEPES, adjusted with NaOH at pH 7.4 (325 mOsm). Drug exposure was evoked by rapid application using a fast perfusion system (AutoMate Scientific).
# The dual targeting and the synergistic effect of NH91 is further illustrated in FIGS. 17A-B and 18A-B, by its effect on the DRG neuron spike discharge triggered by the activation of TRPV1 channels by 1 μM capsaicin.
# [2] = molecular target: T1, recombinant Kv7.2/3 channels (Homo sapiens, UniProt O43525+O43526); assay: Whole-cell patch clamp of recombinant Kv7.2/3 currents in transfected CHO cells; format: cell-based; details: for V50 (parameter of potency for Kv7.2/3 At 5 μM): compound at 5 μM, N = 5-12; for EC50: N = 5-10; for increase of the amplitude of recombinant Kv7.2/3 currents: 5 μM compound, at −40 mV, CHO cells
# T1 construct: expressed in transfected cells; host or cells: CHO cells
# Method: Chinese hamster ovary CHO cells were grown in Dulbecco's modified Eagle's medium supplemented with 2 mM glutamine, 10% fetal calf serum, and antibiotics. In brief, 40,000 cells seeded on poly-D-lysine-coated glass coverslips (13 mm in diameter) in a 24-multiwell plate were transfected with pIRES-CD8 (0.3 μg) as a marker for transfection with 0.5 μg Kv7.2 and 0.5 μg Kv7.3. Transfection was performed using 3.6 μl of X-tremeGENE 9 (Roche) according to the manufacturer's protocol. For electrophysiology, transfected cells were visualized approximately 40 h after transfection, using the anti-CD8 antibody coated beads method.
# (§2) For Kv7.2 potassium current recordings, the patch pipettes were pulled from borosilicate glass (Warner Instrument Corp) with a resistance of 3-7 MΩ, and were filled with (in mM): 130 KCl, 5 Mg ATP, 5 EGTA, 10 HEPES, pH 7.3 (adjusted with KOH), and sucrose was added to adjust osmolarity to 290 mOsmol. The external solution contained (in mM): 140 NaCl, 4 KCl, 1.2 MgCl2, 1.8 CaCl2, 11 glucose, 5.5 HEPES, pH 7.3 (adjusted with NaOH), and sucrose was added to adjust osmolarity to 310 mOsmol. […] For TRPV1 current recordings, the solutions were the same as those used for Kv7.2, except that the extracellular solution contained no CaCl2 to limit desensitization and included 1 mM EGTA and 1 mM MgCl2.
# Chinese hamster ovary CHO cells were grown in Dulbecco's modified Eagle's medium supplemented with 2 mM glutamine, 10% fetal calf serum, and antibiotics. In brief, 40,000 cells seeded on poly-D-lysine-coated glass coverslips (13 mm in diameter) in a 24-multiwell plate were transfected with pIRES-CD8 (0.3 μg) as a marker for transfection with 0.5 μg of Kv7.2 and Kv7.3 cDNA plasmids. Transfection was performed using 3.6 μl of X-tremeGENE 9 (Roche) according to the manufacturer's protocol. For electrophysiology, transfected cells were visualized approximately 40 h after transfection, using the anti-CD8 antibody coated beads method. Recordings were performed using the whole cell configuration of the patch clamp technique. Signals were amplified using an Axopatch 200B patch-clamp amplifier (Axon Instruments), sampled at 5 kHz and filtered at 2.4 kHz via a four pole Bessel low pass filter. Data were acquired using pClamp 10.5 software in conjunction with a DigiData 1440A interface. The patch pipettes were pulled from borosilicate glass (Harvard Apparatus) with a resistance of 3-7 megaohms. The intracellular pipette solution contained 130 mM KCl, 5 mM K2-ATP, 5 mM EGTA (or 5 mM BAPTA when indicated), 10 mM HEPES, pH 7.3 (adjusted with KOH), CaCl2 (as needed for different values of free Ca2+ concentration according to MAXCHELATOR software, with sucrose added to adjust osmolarity to 290 mosmol. The external solution contained 140 mM NaCl, 4 mM KCl, 1.8 mM CaCl2, 1.2 mM MgCl2, 11 mM glucose, 5.5 mM HEPES, adjusted with NaOH to pH 7.3 (310 mOsM). Series resistances were compensated (75-90%) and periodically monitored. Data analysis was performed using the Clampfit program (pClamp 10.5; Axon Instruments), Microsoft Excel (Microsoft, Redmond, Wash.), and Prism 5.0 (GraphPad Software, Inc., San Diego, Calif.). Leak subtraction was performed off-line, using the Clampfit program of the pClamp 10.5 software.
# The normalized conductance was plotted as a function of the test voltages, for cells in the absence and presence of the drug. Chord conductance (G) was calculated by using the following equation: G=I/(V−Vrev), where I corresponds to the current amplitude measured at the end of the pulse, and Vrev is the calculated reversal potential assumed to be −90 mV in CHO cells. G was estimated at various test voltages (V) and then normalized to a maximal conductance value, Gmax. Activation curves were fitted by one Boltzmann distribution: G/Gmax=1/{1+exp[(V50−V)/s]}, where V50 is the voltage at which the current is half-activated and s is the slope factor.
# [3] = molecular target: T2, recombinant TRPV1 channel (Homo sapiens, UniProt Q8NER1); assay: Whole-cell recording of capsaicin-activated recombinant TRPV1 currents in transfected CHO cells; format: cell-based
# T2 construct: expressed in transfected cells; host or cells: CHO cells
# Method: as §2
# Inhibition of recombinant TRPV1 channel was tested as described in Example 2 hereinabove.
# TRPV1 whole-cell currents were activated by exposing transfected CHO cells to 0.5 μM capsaicin at a holding potential of −60 mV.
# FIG. 9 presents the effect of 5 μM NH66 on recombinant TRPV1 currents activated by 0.1 μM capsaicin (CAP). In FIG. 9 are shown the TRPV1 currents evoked by application of 0.1 μM capsaicin to transfected CHO cells. In the upper panel are shown the currents only evoked by application of 0.1 μM capsaicin; in the middle panel, are shown the currents first evoked by application of 0.1 μM capsaicin+5 μM NH66, then by 0.1 μM capsaicin only.
# [4] = tested on: nociceptive dorsal root (DRG) sensory neurons; assay: Current-clamp recording of evoked spike discharge in DRG neurons; format: cell-based, rat
# Method: Inhibition of the evoked spike discharge of nociceptive dorsal root (DRG) sensory neurons was tested as follows:
# as §1
# cardiac Herg channel = cardiac Herg channel (Homo sapiens, UniProt Q12809); assay: Cardiac channel Herg current recordings
# Method: Cardiac channel Herg current recordings were performed as follows:
# Cells were held at −90 mV and stepped for 1.5 s from −70 mV to +30 mV in 10 mV increments and repolarized at −60 mV.
# [5] = tested on: inward voltage-dependent Ca2+ and Na+ current in DRG neurons; assay: Inward voltage-dependent Ca2+ and Na+ current in DRG neurons; format: cell-based; details: 5 μM
# [6] = Rattus norvegicus, Neuron, N = 5-10, read-out: IC50 on inhibition of evoked spike discharge in DRG sensory neurons
# [7] = N = 5-10, Retigabine: No effect at 30, read-out: IC50 on TRPV1
# [8] = DRG neuron, rat DRG neurons, read-out: IC50 of inhibition of evoked spike discharge of nociceptive DRG sensory neurons
# Chain of cardiac Herg channel (Q12809 whole entry): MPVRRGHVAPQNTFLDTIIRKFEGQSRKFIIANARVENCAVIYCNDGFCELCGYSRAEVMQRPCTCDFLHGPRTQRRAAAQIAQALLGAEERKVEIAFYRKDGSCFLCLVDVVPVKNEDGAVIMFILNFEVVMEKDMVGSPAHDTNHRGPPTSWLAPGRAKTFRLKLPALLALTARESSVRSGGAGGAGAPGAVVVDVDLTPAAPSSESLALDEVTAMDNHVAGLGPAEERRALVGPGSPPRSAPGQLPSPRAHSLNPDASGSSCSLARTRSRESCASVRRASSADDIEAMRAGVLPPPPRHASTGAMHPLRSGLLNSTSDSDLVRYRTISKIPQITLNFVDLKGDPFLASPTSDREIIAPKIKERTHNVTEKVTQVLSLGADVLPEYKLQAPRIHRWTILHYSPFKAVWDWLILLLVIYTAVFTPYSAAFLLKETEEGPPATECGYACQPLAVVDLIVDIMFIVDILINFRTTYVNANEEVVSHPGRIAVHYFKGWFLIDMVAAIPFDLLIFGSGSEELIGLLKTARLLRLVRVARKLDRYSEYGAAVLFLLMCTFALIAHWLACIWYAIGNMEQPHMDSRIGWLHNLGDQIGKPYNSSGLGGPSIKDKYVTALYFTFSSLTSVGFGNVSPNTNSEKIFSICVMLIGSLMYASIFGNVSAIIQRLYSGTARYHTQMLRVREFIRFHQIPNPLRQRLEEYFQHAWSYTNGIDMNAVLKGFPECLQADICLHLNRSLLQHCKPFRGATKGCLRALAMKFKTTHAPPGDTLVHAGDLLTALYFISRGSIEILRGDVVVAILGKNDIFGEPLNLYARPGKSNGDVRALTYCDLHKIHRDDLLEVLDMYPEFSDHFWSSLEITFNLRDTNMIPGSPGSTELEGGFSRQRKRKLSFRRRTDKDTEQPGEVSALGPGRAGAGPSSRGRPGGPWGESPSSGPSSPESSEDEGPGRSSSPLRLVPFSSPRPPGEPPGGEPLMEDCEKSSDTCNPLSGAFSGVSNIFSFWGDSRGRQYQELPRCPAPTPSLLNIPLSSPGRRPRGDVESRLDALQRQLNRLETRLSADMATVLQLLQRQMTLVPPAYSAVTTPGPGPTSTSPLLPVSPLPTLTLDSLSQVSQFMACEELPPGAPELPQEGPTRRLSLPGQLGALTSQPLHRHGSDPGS
# T2 sequence (Q8NER1 whole entry): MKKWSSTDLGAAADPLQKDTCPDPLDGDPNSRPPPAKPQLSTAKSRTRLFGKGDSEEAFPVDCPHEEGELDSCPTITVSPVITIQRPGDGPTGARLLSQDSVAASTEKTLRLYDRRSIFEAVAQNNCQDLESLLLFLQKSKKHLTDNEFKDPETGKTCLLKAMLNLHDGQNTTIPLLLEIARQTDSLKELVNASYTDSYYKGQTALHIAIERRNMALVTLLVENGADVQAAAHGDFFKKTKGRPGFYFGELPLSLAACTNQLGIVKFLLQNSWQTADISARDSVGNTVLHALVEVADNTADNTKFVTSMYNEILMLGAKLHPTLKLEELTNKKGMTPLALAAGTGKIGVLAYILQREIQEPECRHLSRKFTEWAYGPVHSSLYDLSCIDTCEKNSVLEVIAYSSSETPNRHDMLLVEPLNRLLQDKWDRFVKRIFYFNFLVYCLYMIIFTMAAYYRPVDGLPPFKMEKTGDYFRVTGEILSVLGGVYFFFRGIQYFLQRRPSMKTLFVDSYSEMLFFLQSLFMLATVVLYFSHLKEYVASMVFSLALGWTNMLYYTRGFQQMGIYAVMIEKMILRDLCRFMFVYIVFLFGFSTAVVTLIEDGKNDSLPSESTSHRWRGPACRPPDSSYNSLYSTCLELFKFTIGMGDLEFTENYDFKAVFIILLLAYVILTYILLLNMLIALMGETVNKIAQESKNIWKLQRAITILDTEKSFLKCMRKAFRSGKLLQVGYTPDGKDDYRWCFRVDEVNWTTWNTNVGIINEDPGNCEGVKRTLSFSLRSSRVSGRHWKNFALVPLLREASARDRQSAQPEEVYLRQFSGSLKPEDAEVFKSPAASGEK
Compound,"inhibition at 0.1 µM ([1]; DRG neuron, read-out: inhibition of capsaicin-evoked DRG spikes)",V50 (parameter of potency for Kv7.2/3 At 5 μM) [2],"IC50 on TRPV1 ([3]; N = 5-10, Retigabine: No effect at 30)","IC50 [4, 6]",IC50 (cardiac Herg channel),EC50 [2],"IC50 [3, 7]","IC50 ([4]; Rattus norvegicus, Neuron, read-out: IC50 on inhibition of evoked spike discharge in DRG sensory neurons)",increase of the amplitude of recombinant Kv7.2/3 currents [2],"IC50 ([3]; currents activated by 0.1 μM capsaicin, read-out: IC50 of inhibition of recombinant TRPV1 currents)","IC50 [4, 8]",effect on amplitude at −40 mV and voltage-dependence of Kv7.2/3 channels (in words) [2],effect on DRG evoked spike discharge (in words) [4],"inhibition of capsaicin-evoked DRG spike discharge in the presence of XE991 ([1]; Kv7.2/3 channel blocker XE991 10 μM present, n=11)",effect on inward voltage-dependent Ca2+ and Na+ current in DRG neurons [5]
"CC(=O)Nc1nc2c(Oc3cc(-c4ccc(C(F)(F)F)cc4)ncn3)cccc2s1 [AMG 517, reference compound]",42%,,,,,,,,,,,,,,
"CCOC(=O)Nc1ccc(NCc2ccc(F)cc2)cc1N [Retigabine, N-(2-amino-4-(4-fluorobenzylamino)-phenyl)carbamic acid ethyl ester, reference compound]",,−30.4 mV,No effect,5 µM,> 30 µM,,,,,,,,,,
CC(C)(CO)CNC(=O)Cc1cc(Nc2c(Cl)cc(Cl)cc2Cl)ccc1F [NH82],,−41.1 mV,,0.5 µM,> 100 µM,0.5 µM,0.4 µM,,,,,,,,
"O=C(Cc1ccc(Nc2c(Cl)cc(C(F)(F)F)cc2Cl)cc1)NCCO [NH34, reference compound]",,−28.1 mV,,25 µM,35 µM,17.5 µM,55 µM,,,,,,,,
"O=C(Cc1cc([N+](=O)[O-])cc([N+](=O)[O-])c1Nc1c(Cl)cc([N+](=O)[O-])cc1Cl)NCCO [NH29, reference compound]",,−27.4 mV,,,5 µM,,4.2 µM,18 µM,,,,,,,
CC(C)(O)CNC(=O)Cc1cc(Nc2c(Cl)cc(Cl)cc2Cl)ccc1F [NH66],,−30.3 mV,,0.5 µM,> 60 µM,1 µM,,,about 3.5 fold,0.3 µM,0.5 µM,,,,
CC(C)c1cc(Cl)cc(Cl)c1Nc1ccc(F)c(CC(=O)NCC(C)(C)O)c1 [NH91],,−42.4 mV,,1 µM,> 60 µM,2 µM,0.1 µM,,,,,potently increase the amplitude left-shift the voltage-dependence of activation,prominently inhibits,50%,did not affect
"O=C(Cc1cc(Nc2c(Cl)cc(Cl)cc2Cl)ccc1F)NCCO [NH43, reference compound]",,−42.0 mV,,0.3 µM,> 60 µM,0.6 µM,0.4 µM,,about 3.5 fold,,0.3 µM,,,,
CC(C)(O)CCNC(=O)Cc1cc(Nc2c(Cl)cc(Cl)cc2C2CC2)ccc1F [NH101],,−67.4 mV,,0.2 µM,> 50 µM,0.2 µM,0.1 µM,,,,,potently increase the amplitude left-shift the voltage-dependence of activation,,,
CC(C)(O)CCNC(=O)Cc1cc(Nc2c(Cl)cc(Cl)cc2Cl)ccc1F [NH83],,−37.3 mV,,0.2 µM,,0.6 µM,0.8 µM,,,,,,slightly improved activity,,
O=C(Cc1cc(Nc2c(Cl)cc(Cl)cc2Cl)ccc1F)NC1CCC(O)C1 (stereo not shown) [NH110],,−38.5 mV,,0.2 µM,,7.3 µM,,,,,,potently increase the amplitude left-shift the voltage-dependence of activation,inhibits,,
